Test results from patent publication US10517889B2, “Modulators of SMAD7 expression” (Ionis Pharmaceuticals, Inc., priority 2017, dated 2019).
Strand notation (5' to 3'): a small letter for the sugar, then the base; units joined by * are phosphorothioate-linked, units joined directly phosphodiester-linked; [ ] holds rarer units or linkages, { } end groups; capitals alone tell only the bases. k = constrained ethyl (cEt); [5mC] = 5-methylcytosine; d = 2'-deoxy (DNA)

System: human SMAD7 mRNA
Assay: Antisense inhibition of human SMAD7 mRNA expression in Hep3B cells by 3-10-3 cEt gapmers, 10,000 nM, electroporation (Example 2)
Type: cell-based
Conditions: approximately 24 hours
Method in brief: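 Hep3B cells (20,000 per well) were electroporated with 10,000 nM 16-mer 3-10-3 cEt gapmer (phosphorothioate, 5-methylcytosine). After about 24 h, SMAD7 mRNA was quantified by qRT-PCR with primer probe set RTS5062, normalised to RIBOGREEN total RNA, and expressed as percent inhibition versus untreated cells.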

[1] = Hep3B cells, electroporation with 10,000 nM antisense oligonucleotide, primer probe set RTS5062, relative to untreated control cells
[2] = Hep3B cells, electroporation with 10,000 nM antisense oligonucleotide, SMAD7 mRNA by RT-PCR (RTS5062), relative to untreated control cells
[3] = Hep3B cells, electroporation with 10,000 nM antisense oligonucleotide, RTS5062, percent inhibition of SMAD7 mRNA relative to untreated control cells
[4] = SMAD7 mRNA, Hep3B cells, electroporation with 10,000 nM antisense oligonucleotide, primer probe set RTS5062, relative to untreated control cells

**Q.** How did the “% Inhibition” value [1] turn out when “799095 (antisense kA*k[5mC]*k[5mC]*dT*dG*dA*dT*dG*dT*d[5mC]*dA*d[5mC]*d[5mC]*kA*kG*kG) [compound 799095]” was run?
**A.** The value was 0%.

**Q.** How did the “% Inhibition” value [2] turn out when “799430 (antisense kA*kG*k[5mC]*d[5mC]*dA*d[5mC]*dA*dA*dG*dT*d[5mC]*dA*d[5mC]*kA*kA*k[5mC]) [compound 799430]” was run?
**A.** Its value is 29%.

**Q.** Which “% inhibition of SMAD7 mRNA expression” value [1] does the source give for “798654 (k[5mC]*k[5mC]*k[5mC]*dT*dG*d[5mC]*dG*d[5mC]*dG*dG*d[5mC]*dT*d[5mC]*kT*k[5mC]*k[5mC]; antisense) [compound 798654]” here?
**A.** Its value is 23%.

**Q.** “799378 (antisense kG*kA*kA*dT*dA*d[5mC]*dT*dG*dA*dG*dA*dA*dA*kA*k[5mC]*k[5mC]) [compound 799378]” was tested. Which “% inhibition of SMAD7 mRNA expression” value [1] did it give?
**A.** The value was 46%.

**Q.** How did the “% Inhibition” value [3] turn out when “799828 (antisense kT*kG*k[5mC]*dG*dA*dG*d[5mC]*d[5mC]*dA*dA*dG*dA*dG*kA*k[5mC]*kA) [compound 799828]” was run?
**A.** Its value is 54%.

**Q.** Which “% inhibition of SMAD7 mRNA expression” value (Hep3B cells, electroporation, 10,000 nM antisense oligonucleotide, RTS5062, relative to untreated control cells) does the source give for “799634 (k[5mC]*kA*kG*dA*d[5mC]*dT*dG*d[5mC]*d[5mC]*dA*dA*dA*dT*k[5mC]*kA*k[5mC]; antisense) [compound 799634]” here?
**A.** Its value is 23%.

**Q.** “829845 (antisense kT*k[5mC]*k[5mC]*dG*dA*dA*dT*dT*dG*dA*dG*d[5mC]*dT*kG*kT*k[5mC]) [compound 829845]” was tested. Which “% Inhibition” value [4] did it give?
**A.** The value was 40%.

**Q.** With “798762 (kT*kA*kG*dG*dA*d[5mC]*dG*dA*dG*dG*dG*d[5mC]*dG*kG*k[5mC]*kT; antisense) [compound 798762]” as the substance, how does the “% inhibition of SMAD7 mRNA expression” value [1] read?
**A.** Its value is 56%.

**Q.** Which “% inhibition of SMAD7 mRNA expression” value [1] does the source give for “772709 (kT*kA*kA*dA*dG*d[5mC]*dA*dA*dA*dG*dT*dG*d[5mC]*kA*kT*k[5mC]; antisense) [compound 772709]” here?
**A.** The value was 0%.

**Q.** How did the “% inhibition of SMAD7 mRNA expression” value [1] turn out when “798725 (antisense kT*k[5mC]*kG*d[5mC]*dA*d[5mC]*d[5mC]*dG*d[5mC]*d[5mC]*dT*dT*dG*k[5mC]*k[5mC]*k[5mC]) [compound 798725]” was run?
**A.** Its value is 29%.

**Q.** Which “% inhibition of SMAD7 mRNA expression” value [1] does the source give for “799083 (antisense kG*kG*kA*dA*dG*d[5mC]*d[5mC]*d[5mC]*dA*dT*d[5mC]*dT*d[5mC]*kA*kG*kG) [compound 799083]” here?
**A.** Its value is 0%.

**Q.** With “800053 (antisense k[5mC]*kT*kA*d[5mC]*dA*d[5mC]*d[5mC]*dA*dA*dA*dG*dA*d[5mC]*k[5mC]*kT*kG) [compound 800053]” as the substance, how does the “% Inhibition” value (Hep3B cells, 10,000 nM antisense oligonucleotide, electroporation, RT-PCR primer probe set RTS5062, relative to untreated control cells) read?
**A.** The value was 63%.

**Q.** “799174 (antisense kA*kG*kT*d[5mC]*dT*dA*dA*dA*d[5mC]*dA*dT*dG*d[5mC]*kT*k[5mC]*kA) [compound 799174]” was tested. Which “% Inhibition” value [1] did it give?
**A.** Its value is 42%.

**Q.** With “829965 (k[5mC]*kT*k[5mC]*dA*d[5mC]*d[5mC]*dT*dA*dG*dT*dT*d[5mC]*dG*k[5mC]*kA*kG; antisense) [compound 829965]” as the substance, how does the “% Inhibition” value [4] read?
**A.** Its value is 0%.

**Q.** “799338 (kT*kT*kA*dT*dA*dG*d[5mC]*dA*d[5mC]*dG*d[5mC]*d[5mC]*dT*k[5mC]*kT*k[5mC]; antisense) [compound 799338]” was tested. Which “% inhibition of SMAD7 mRNA expression” value [1] did it give?
**A.** The value was 0%.

**Q.** With “830088 (kG*kT*kT*dT*dT*dA*d[5mC]*dA*dG*dG*dA*dT*dA*k[5mC]*kA*k[5mC]; antisense) [compound 830088]” as the substance, how does the “% Inhibition” value [2] read?
**A.** Its value is 52%.

**Q.** With “830185 (antisense kG*k[5mC]*k[5mC]*dA*d[5mC]*d[5mC]*dA*dA*d[5mC]*dG*dG*dT*dT*kG*k[5mC]*k[5mC]) [compound 830185]” as the substance, how does the “% Inhibition” value [2] read?
**A.** The value was 27%.

**Q.** “790484 (kG*kA*kA*d[5mC]*dA*d[5mC]*dT*dT*dT*dG*d[5mC]*dA*d[5mC]*kA*kG*k[5mC]; antisense) [compound 790484]” was tested. Which “% Inhibition” value (SMAD7 mRNA, Hep3B cells, 10,000 nM antisense oligonucleotide, electroporation, primer probe set RTS5062, relative to untreated control cells) did it give?
**A.** The value was 62%.

**Q.** Which “% inhibition of SMAD7 mRNA expression” value [1] does the source give for “799106 (antisense kT*kT*kT*dT*d[5mC]*dT*dA*dA*dG*dT*d[5mC]*d[5mC]*dG*kG*kG*kA) [compound 799106]” here?
**A.** The value was 34%.

**Q.** How did the “% Inhibition” value [3] turn out when “799272 (antisense kA*kT*kT*dA*d[5mC]*dT*d[5mC]*dG*dA*dG*dT*d[5mC]*dA*kG*kG*k[5mC]) [compound 799272]” was run?
**A.** The value was 55%.

**Q.** Which “% Inhibition” value [2] does the source give for “800047 (antisense kA*k[5mC]*k[5mC]*d[5mC]*dA*d[5mC]*dT*dG*dA*dA*dA*d[5mC]*d[5mC]*kT*kG*kG) [compound 800047]” here?
**A.** The value was 28%.
